Several values for one entry are separate records, joined by “and”; a condition that tells them apart may be missing. Equal entries are not always repeated.

Experiment [1] concerns the target T1, human CD38 enzyme in primary human M1 macrophages (Homo sapiens, UniProt P28907).
T1 construct: The assay utilized whole primary human macrophages (from healthy donors); endogenous in cells; host or cells: primary human macrophages from healthy donors, LPS-stimulated (M1)
T1 sequence (P28907 1-300): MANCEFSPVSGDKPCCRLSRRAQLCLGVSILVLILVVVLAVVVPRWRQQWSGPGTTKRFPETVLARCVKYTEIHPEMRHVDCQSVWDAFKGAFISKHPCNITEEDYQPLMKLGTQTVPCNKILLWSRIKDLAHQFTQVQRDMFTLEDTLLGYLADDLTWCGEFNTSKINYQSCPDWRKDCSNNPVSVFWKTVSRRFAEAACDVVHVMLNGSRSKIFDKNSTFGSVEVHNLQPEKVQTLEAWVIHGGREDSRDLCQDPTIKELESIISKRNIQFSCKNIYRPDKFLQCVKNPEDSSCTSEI
The experiment can be described thus: NAD+ hydrolase activity assay in primary human M1 macrophages. It is filed as cell-based. As to conditions: primary human M1 macrophages (LPS stimulated). Here is the method:
The in vitro potency of Compound 35 against the human CD38 enzyme was determined by a fluorescence-based NAD+ hydrolase activity assay using the NAD+ analog nicotinamide 1,N^6-etheno-adenine dinucleotide (εNAD+) as substrate. The assay utilized: 1) whole primary human CD4+ T cells (from healthy donors) activated with anti-CD3/CD28 antibodies and expressing human CD38; or II) whole primary human macrophages (from healthy donors) stimulated with LPS to polarize in a pro-inflammatory M1 state expressing human CD38. The cells were incubated in the presence of 8 different concentrations of Compound 35 for 10 minutes and the reaction was started adding the substrate εNAD+. The emission of fluorescence was measured at 410-20 nm at 37° C. every minute for 1 hr. The NAD+ hydrolase activity was calculated as the slope of the linear portion of the fluorescence-time curve and used to calculate the IC50 value.
The in vitro potency of Compound 32 against the human CD38 enzyme was determined by a fluorescence-based NAD+ hydrolase activity assay using the NAD+ analog nicotinamide 1,N6-etheno-adenine dinucleotide (εNAD+) as substrate. The assay utilized whole primary human macrophages (from healthy donors) stimulated with LPS to polarize in a pro-inflammatory M1 state expressing human CD38. […] The emission of fluorescence was measured at 410-20 nm at 37° C. every minute for 1 hr. The NAD+ hydrolase activity was calculated as the slope of the linear portion of the fluorescence-time curve and used to calculate the IC50 value.
The in vitro potency of Compound 39 against the human CD38 enzyme was determined by a fluorescence-based NAD+ hydrolase activity assay using the NAD+ analog nicotinamide 1,N6-etheno-adenine dinucleotide (εNAD+) as substrate. […] The emission of fluorescence was measured at 410-20 nm at 37° C. every minute for 1 hr. The NAD+ hydrolase activity was calculated as the slope of the linear portion of the fluorescence-time curve and used to calculate the IC50 value.

The target in experiment [2] is T2, recombinant mouse CD38 Protein (Mus musculus, UniProt P56528).
T2 construct: purchased R&D System
T2 sequence (P56528 1-304): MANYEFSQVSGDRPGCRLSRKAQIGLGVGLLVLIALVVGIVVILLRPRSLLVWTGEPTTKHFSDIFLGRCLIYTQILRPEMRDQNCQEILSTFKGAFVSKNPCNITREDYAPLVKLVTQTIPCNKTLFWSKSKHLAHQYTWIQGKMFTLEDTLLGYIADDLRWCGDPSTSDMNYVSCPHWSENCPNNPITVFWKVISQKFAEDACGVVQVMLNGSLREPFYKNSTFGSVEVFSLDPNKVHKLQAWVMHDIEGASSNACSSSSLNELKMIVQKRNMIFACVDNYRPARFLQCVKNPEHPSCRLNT
The experiment in a line: Fluorescence-based NAD+ cyclase activity assay with mouse recombinant CD38 protein (Assay 4). As to conditions: read-out: Assay 4 Arithmetic mean IC50. It is filed as biochemical. The procedure: This protocol was modified from de Oliveira et al. (2018) supra.
NAD+ cyclase activity of the […] recombinant CD38 protein treated with test compounds was measured using a fluorescence-based assay. Briefly, recombinant mouse CD38 Protein (R&D System) was resuspended in 44 μl/well of Sucrose-Tris Buffer (Sucrose 0.25 M, Tris pH 7.4 40 mM) and plated in a 96-well black plate (CORNING) at a density of 32 ng/well.
Each test compound was received in a powder state and dissolved in DMSO as a 25 mM stock solution. Each test compound was serially diluted in order to generate a dose-response curve. The dilution series of each test compound in DMSO was prepared at 50 times the concentrations to be assayed. Each test compound was diluted to generate a 5-fold dilution series of 8 concentrations from 100 μM to 32 nM in order to assay 8 final concentrations ranging from 2 μM to 0.64 nM. One μl of the 50× concentration compound series was added to each well of the plate containing 125 ng of protein in Sucrose-Tris buffer.
Each plate had the following intra plate controls: 3 wells containing cells treated with vehicle only (DMSO), 3 wells of cells treated with the reference compounds 78c at a final concentration of 500 nM and 2 wells containing only Sucrose-Tris buffer (used as a background value).
The reaction was started adding nicotinamide guanine dinucleotide (NGD+) (Sigma Aldrich) to reach a final concentration of 150 µM. The samples were excited at 337-15 nm and the emission of fluorescence was measured at 442-20 nm at 37° C. every minute for 1 hr in a Clariostar® microplate reader (BMG LABTECH). NAD+ cyclase activity was calculated as the slope of the linear portion of the fluorescence-time curve using the MARS data analysis software (BMG LABTECH). The data were uploaded in the Collaborative Drug Design (CDD) Software and for each compound the IC50 was calculated by the software. Each compound was tested in 3 independent experiments on 3 separate days to establish the reproducibility of the results. For each plate, the z-factor was also calculated as a plate quality using the CDD software.

Broadly, the IC50 is the concentration needed to halve the response being measured. Consider `O=C(Nc1ccnc(C(F)(F)F)c1)c1cc(OC2CC2)cc(-n2ccnc2)n1` [Compound 32, 4-cyclopropoxy-6-(1H-imidazol-1-yl)-N-(2-(trifluoromethyl)pyridin-4-yl)picolinamide], for which, in experiment [1], the half-maximal inhibitory concentration (IC50) was 3.5 nM and 3.49 nM.
Take `CN(C)CCOc1cc(C(=O)Nc2ccnc(C(F)(F)F)c2)nc(-n2ccnc2)c1` [Compound 33]: the IC50 in experiment [2] lay in the range of 1 to 50 nM.
As to `CC1(Oc2cc(C(=O)Nc3ccnc(C(F)(F)F)c3)nc(-n3ccnc3)c2)COC1` [Compound 34, 6-(1H-imidazol-1-yl)-4-((3-methyloxetan-3-yl)oxy)-N-(2-(trifluoromethyl)pyridin-4-yl)picolinamide], in experiment [2], the 50% inhibitory concentration (IC50) was in the range of 51 to 1000 nM.
Take `COc1cc(C(=O)Nc2ccnc(C(F)(F)F)c2)nc(-n2ccnc2)c1` [Compound 35, 6-(1H-imidazol-1-yl)-4-methoxy-N-(2-(trifluoromethyl)pyridin-4-yl)picolinamide]: the values for the IC50 in experiment [2] and in experiment [1] were 1 to 50 nM and 2.25 nM, respectively.
Regarding `COc1cc(C(=O)Nc2ccnc(C(F)(F)F)c2)nc(-n2ccnc2)n1` [Compound 37, 2-(1H-imidazol-1-yl)-6-methoxy-N-(2-(trifluoromethyl)pyridin-4-yl)pyrimidine-4-carboxamide], the IC50 in experiment [2] fell in the range of 51 to 1000 nM.
In the case of `CCOc1cc(C(=O)Nc2ccnc(C(F)(F)F)c2)nc(-n2ccnc2)n1` [Compound 38], in experiment [2], the 50% inhibitory concentration (IC50) was in the range of 51 to 1000 nM.
As for `COCCOc1cc(C(=O)Nc2ccnc(C(F)(F)F)c2)nc(-n2ccnc2)n1` [Compound 39, 2-(1H-imidazol-1-yl)-6-(2-methoxyethoxy)-N-(2-(trifluoromethyl)pyridin-4-yl)pyrimidine-4-carboxamide], the 50% inhibitory concentration (IC50) in experiment [2] is 1 to 50 nM; in experiment [1] it was 3.9 nM and 3.92 nM.
`O=C(Nc1ccnc(C(F)(F)F)c1)c1cc(OC2CC2)nc(-n2ccnc2)n1` [Compound 40]: the IC50 in experiment [2] was 51 to 1000 nM.
As to `O=C(Nc1ccnc(C(F)(F)F)c1)c1cc(C2CC2)nc(-n2ccnc2)n1` [Compound 51, 6-cyclopropyl-2-(1H-imidazol-1-yl)-N-(2-(trifluoromethyl)pyridin-4-yl)pyrimidine-4-carboxamide], the 50% inhibitory concentration (IC50) in experiment [2] fell in the range of 1 to 50 nM.

These data come from US12509451B2, “Heteroaryl amide inhibitors of CD38” (NAPA THERAPEUTICS LTD., priority 2020, dated 2025).
